Results on 1 molecule are retold here after US6863898B2, “Method and composition for treating hairy hoof warts” (priority 2002, dated 2005).

This assay deals with hairy hoof warts. Nature of the assay: Footwrap application of aspirin compositions to infected hoofs of cows with hairy hoof warts. It counts as in vivo. The conditions noted are these: topical; for healing of hairy hoof wart infections (result in words): 23 cubic centimeters in a footwrap left on the hoof about fourteen days. On the procedure:
In testing the method of the subject invention on cows with hairy hoof warts, an aspirin composition (100% aspirin powder) was administered to the infected hoof by incorporating the aspirin into a conventional footwrap and wrapping the footwrap about an animal's hoof so that the aspirin was applied to an infected area of an animal's hoof. The aspirin composition of the subject invention that includes about 75% by weight aspirin powder, about 5% by weight hydrated lime, about 15% by weight sodium bentonite, and about 5% by weight chalk was also tested in the same manner. With the application of the aspirin compositions to the infected hoof areas by this method, the infection progressively diminished and the hairy hoof warts were typically healed within about fourteen days. In the method of the subject invention for treating anchor preventing hairy hoof warts, an aspirin composition of 100% aspirin, a composition of another compound or derivative of salicylic acid of 100% of the other compound or derivative, an aspirin containing composition, or a composition containing another compound or derivative of salicylic acid is administered in an effective amount to an infected area of an animal's hoof or, as a preventive measure, to an area of an animal's hoof that could be infected. In a preferred embodiment of the method of the subject invention, the composition of or containing aspirin or another compound or derivative of salicylic acid is incorporated into a conventional footwrap, such as but not limited to a footwrap sold by Minnesota Mining and Manufacturing under the trade designation “[…]”. The footwrap is then applied to an animal's hoof with the composition being applied to the infected area of the hoof or, as a preventive measure, to an area of potential hoof infection. […]

As to `CC(=O)Oc1ccccc1C(=O)O` [100% aspirin powder, aspirin], the “healing of hairy hoof wart infections (result in words)” value (listed as 100% powdered aspirin composition) is “successful in healing even severe hairy hoof wart infections” and the “healing of hairy hoof wart infections (result in words)” value (listed as aspirin composition of 100% aspirin) is reported as “appeared to achieve the best results”. For the same molecule, the “time until the hairy hoof warts were healed” value (composition in a conventional footwrap on the infected hoof area, typical value) is “fourteen”.
